From patent US20120142550A1, “Vanin 1 as a Peripheral Blood Oxidative Stress Sensor” (priority 2010, published 2012)

Tested on: PBMC
Assay: GSH/GSSG ratio by LC-MS/MS in treated PBMC samples
Assay type: cell-based, human
Conditions: 4 PBMC samples, 12 hours
Procedure: The levels of glutathione (GSH, reduced form) and glutathione disulfide (GSSG, oxidized form) in the whole blood of each subject were determined using a liquid chromatography-tandem mass spectrometry (LC-MS/MS)-based procedure modified from that of Norris et al. (J Chromatogr B Biomed Sci Appl. 2001; 762 (I):17-23) In brief, whole blood was mixed in a 1:4 (v:v) ratio with solution containing n-ethylmaleimide (NEM), sulfosalicylic acid, EDTA and methanol. Supernatants were diluted with stable-isotope internal standards (GSH-^13C, ^15N-NEM and GSSG-^13C, ^15N) and analyzed by LC-MS/MS, using an API 3000 Tandem Mass Spectrometer with Turbulon Ion Spray source, Shimadzu solvent delivery system and LEAP Technology autosampler. GSH (as GSH-NEM) and GSSG were monitored by transitions m/z 433→304 and m/z […] respectively, and data was acquired using Analyst 1.4.
Significance analysis of microarrays (SAM) was conducted for analysis of microarray data to identify differentially expressed genes. The Mann-Whitney test was used in the analysis of real-time PCR validation data. Unpaired t-test was conducted for the comparison of glutathione levels in ITP patients and controls. Paired t-test was carried out for the analysis of differences in GSH/GSSG ratios in cells with or without LPS or sodium arsenite treatments. […]

Row | Molecule | GSH/GSSG ratio compared with untreated cells (sodium arsenite 5 μM, p=0.01) | GSH/GSSG ratio compared with untreated cells (LPS 10 ng/ml, p=0.04)
1 | O=[As]O [sodium arsenite] | statistically significant decrease | –
2 | Lipopolysaccharide [LPS] | – | statistically significant decrease
